Experimental data: patent US6544727B1, “Methods and devices for the removal of psoralens from blood products” (Cerus Corporation, priority 1995, dated 2003)
Read-outs that look alike come from different tables or passages of the source.

Key:
R17 bacteriophage = R17 bacteriophage inactivation assay, varying compound concentration; type: cell-based; details: for R17 inactivation efficiency compared with AMT or 8-MOP (in words): varying concentration, Tables 6-9, FIGS. 6-10
Experimental: An r-17 bacteriophage assay was used in this example to predict pathogen inactivation efficiency and to determine nucleic acid binding of the photoreactive binding compounds of the present invention. In the r-17 assay, the bacteriophage was placed in a solution with each compound tested and was then irradiated. The ability of the phage to subsequently infect bacteria and inhibit their growth was measured. The bacteriophage was selected for its relatively accessible nucleic acid such that the culture growth inhibition would accurately reflect nucleic acid damage by the test compounds. The bacteriophage assay for nucleic acid binding to test compounds offers a safe and inexpensive procedure to identify compounds likely to display efficient pathogen inactivation.
The R17 was grown up in Hfr 3000 bacteria, approximate titer 5×10^11. (R17 and Hfr 3000 were obtained from American Tissue Culture Collection (ATCC), Washington, D.C.) The R17 phage stock was added to a solution of 15% fetal bovine serum in Dulbecco's Modified Eagles Medium (DMEM) to a final phage concentration of 10^9/mL. An aliquot (0.5 mL) was transferred to a 1.5 mL snap-top polyethylene tube. An aliquot (0.004-0.040 mL) of the test compound stock solution prepared in water, ethanol or dimethylsulfoxide at 0.80-8.0 mM was added to the tube. Compounds were tested at concentrations between 4 μM and 320 μM. […] The tubes were placed in a light device as described in EXAMPLE 1 and irradiated for between 1 and 10 minutes. Sterile 13 mL dilution tubes were prepared; each test compound required one tube with 0.4 mL of Luria broth (LB) and five tubes containing 0.5 mL of LB broth. To make the dilutions, a 0.100 mL aliquot of the irradiated solution of phage and test compound was added to the first dilution tube of 0.4 mL of media then 0.020 mL of this solution was added to the second tube of 0.5 mL medium (1:25). The second solution was then diluted serially (1:25) into the remaining tubes. To each diluted sample was added 0.050 mL of Hfr 3000 bacteria cultured overnight and 3 mL of molten LB top agar and the mixed materials were poured onto LB broth plates. After the top agar hardened, the plates were incubated at 37° C. overnight. The plaque forming units were then counted the following morning and the titer of the phage remaining after phototreatment was calculated based on the dilution factors.
The following controls were run: the “phage only” in which phage was not treated with test compound and not irradiated (listed as “starting titer” in the tables below); the “UV only” in which the phage was irradiated in the absence of test compound; and the “dark” control in which the phage/test compound solution was not irradiated before it was diluted and plated.

HIV-1 = details: for HIV Log Kill: 1 minute irradiation
Experimental: As in the R17 assay, small aliquots of the compounds listed in TABLES 10 and 11, below, at the concentrations listed in the table, were added to stock HIV-1 to a total of 0.5 mL. The stock HIV (10^5−10^7 plaque forming units/mL) was in DMEM15% FBS. […] Controls included HIV-1 stock only, HIV-1 plus UVA only, and HIV-1 plus the highest concentration of each psoralen tested, with no UVA. Post irradiation, all samples were store frozen at −70° C. until assayed for infectivity by a microtiter plaque assay. Aliquots for measurement of residual HIV infectivity in the samples treated with a compound of the present invention were withdrawn and cultured.
Residual HIV infectivity was assayed using an MT-2 infectivity assay. […] The assay medium was 85% DMEM (with a high glucose concentration) containing 100 μg of streptomycin, 100 U of penicillin, 50 μg of gentamicin, and 1 μg of amphotericin B per mL, 15% FBS and 2 μg of Polybrene (Sigma Chemical Co., St. Louis, Mo.) per mL. Test and control samples from the inactivation procedure were diluted in 50% assay medium and 50% normal human pooled plasma The samples were serially diluted directly in 96-well plates (Corning Glass Works, Corning, N.Y.). The plates were mixed on an oscillatory shaker for 30 seconds and incubated at 37° C. in a 5% CO2 atmosphere for 1 to 18 hours. […] After an additional 1 hour of incubation at 37° C. in 5% CO2, 0.075 mL of assay medium containing 1.6% SeaPlaque agarose (FMC Bioproducts, Rockland, Me.) and prewarmed to 38.5° C. was added to each well. The plates were kept at 37° C. for a few minutes until several plates had accumulated and then centrifuged in plate carriers at 600×g for 20 minutes in a centrifuge precooled to 10° C. In the centrifuge, cell monolayers formed prior to gelling of the agarose layer. The plates were incubated for 5 days at 37° C. in 5% CO2 and stained by the addition of 0.05 mL of 50 μg/mL propidium iodide (Sigma Chemical Co.) in phosphate-buffered saline (pH 7.4) to each well. After 24 to 48 hours, the red fluorescence-stained microplaques were visualized by placing the plates on an 8,000 μW/cm^2304 nm UV light box (Fotodyne, Inc., New Berlin, Wis.). The plaques were counted at a magnification of x20 to x25 through a stereomicroscope.

[1] = system: Salmonella typhimurium tester strains; test: Ames Salmonella dark mutagenicity test, overall assessment; type: cell-based; details: two-fold or greater increase in revertants above background and dose dependence
Experimental: A brief description for each procedure is given here. […] TA97a, TA98, TA1537 and TA1538 are frameshift tester strains. TA100 and TA102 are base-substitution tester strains.
This served as the background controls.
For all experiments, the pre-incubation procedure was used.

[2] = system: Salmonella tester strain TA100
Experimental: (§1) In this example the compounds of the present invention are tested for their dark mutagenicity using an Ames assay. The procedures used for the Salmonella mutagenicity test as described in detail by Maron and Ames were followed exactly. Maron, D. M. and B. N. Ames, Mutation Research 113: 173 ( 1983). A brief description for each procedure is given here. The tester strains TA97a, TA98, TA100, TA102, TA1537 and TA1538 were obtained from Dr. Ames. TA97a, TA98, TA1537 and TA1538 are frameshift tester strains. TA100 and TA102 are base-substitution tester strains. Upon receipt each strain was cultured under a variety of conditions to confirm the genotypes specific to the strains.
(§2) The first tests done with the strains were to determine the range of spontaneous reversion for each of the strains. With each mutagenicity experiment the spontaneous reversion of the tester strains to histidine independence was measured and expressed as the number of spontaneous revertants per plate. This served as the background controls.
(§3) For all experiments, the pre-incubation procedure was used. In this procedure one vial of each tester strain was thawed and 20 μL of this culture was added to 6 mL of Oxoid Nutrient Broth #2. This solution was allowed to shake for 10 hours at 37° C. In the pre-incubation procedure, 0.1 mL of this overnight culture was added to each of the required number of sterile test tubes. To half of the tubes 0.5 mL of a 10% S-9 solution containing Aroclor 1254 induced rat liver extract (Molecular Toxicology Inc., Annapolis, Md.), and MgCl2, KCl, glucose-6-phosphate, NADP, and sodium phosphate buffer (Sigma, St. Louis, Mo.) were added. To the other half of the tubes 0.5 mL of 0.2M sodium phospate buffer, pH 7.4, was used in place of the S-9 mixture (the—S9samples). Finally 0.1 mL of the test solution containing either 0, 0.1, 0.5, 1, 5, 10, 50, 100, 250, or 500 μg/mL of the test compound was added. The 0.7 mL mixture was vortexed and then pre-incubated while shaking for 20 minutes at 37° C. After shaking, 2 mL of molten top agar supplemented with histidine and biotin were added to the 0.7 mL mixture and immediately poured onto a minimal glucose agar plate (volume of base agar was 20 mL). The top agar was allowed 30 minutes to solidify and then the plates were inverted and incubated for 44 hours at 37° C. After incubation the number of revertant colonies on each plate were counted. […] (“n” represents the number of replicates performed for each data point.)

[3] = system: Salmonella tester strain TA1538
Experimental: as §1, §2, §3

mouse reticulocytes = details: positive control, 30 mg/kg administered only once, on day three, blood on day 5; 30 mg/kg
Experimental: Male Balb/c mice were then injected with 0.1 ml of a compound solution via the tail vein. At least 3 mice were injected per dose level. Saline only was used as a negative control. For a positive control, cyclophosphamide (cycloPP) was administered at a dose of 30 mg/kg. In the experimental group, the injections were repeated once per day for four days. In the positive control group, the sample was administered only once, on day three. On day 5, several microliters of blood were withdrawn from each subject and smeared on a glass slide. Cells were fixed in absolute methanol and stored in a slide rack.
For analysis, cells were stained with acridine orange and visualized under a fluorescence microscope by counting: (i) the number of reticulocytes per 5000 erythrocytes; and (ii) the number of micronucleated reticulocytes per 1000 reticulocytes. Reticulocytes were distinguished by their red fluorescence due to the presence of RNA. Micronuclei were distinguished by their green fluorescence due to the presence of DNA. The percentage of reticulocytes (%PCE) was then calculated. A decrease in the frequency of […] in the percentage of reticulocytes, is an indication of bone marrow toxicity. The percentage of reticulocytes with micronuclei (%PCE with MN) was also calculated. An increase in %PCE with MN is a measure of clastogenicity.
After initial results were determined, the experiment was repeated using increased dose levels, until: (i) Micronucleus formation was seen; or (ii) Bone marrow toxicity was observed; or (iii) The lethal dose was reached; or (iv) A dose of 5 g/kg was administered.

[4] = system: Salmonella tester strain TA98; test: Ames test, strain TA98; details: TA98 − S9; 10 μg/plate
Experimental: as §1, §2
For all experiments, the pre-incubation procedure was used. In this procedure one vial of each tester strain was thawed and 20 μL of this culture was added to 6 mL of Oxoid Nutrient Broth #2. This solution was allowed to shake for 10 hours at 37° C. In the pre-incubation procedure, 0.1 mL of this overnight culture was added to each of the required number of sterile test tubes. To half of the tubes 0.5 mL of a 10% S-9 solution containing Aroclor 1254 induced rat liver extract (Molecular Toxicology Inc., Annapolis, Md.), and MgCl2, KCl, glucose-6-phosphate, NADP, and sodium phosphate buffer (Sigma, St. Louis, Mo.) were added. To the other half of the tubes 0.5 mL of 0.2M sodium phospate buffer, pH 7.4, was used in place of the S-9 mixture (the—S9samples). […] The 0.7 mL mixture was vortexed and then pre-incubated while shaking for 20 minutes at 37° C. After shaking, 2 mL of molten top agar supplemented with histidine and biotin were added to the 0.7 mL mixture and immediately poured onto a minimal glucose agar plate (volume of base agar was 20 mL). The top agar was allowed 30 minutes to solidify and then the plates were inverted and incubated for 44 hours at 37° C. After incubation the number of revertant colonies on each plate were counted. […] (“n” represents the number of replicates performed for each data point.)

[5] = system: Salmonella tester strain TA1537; test: Ames test, strain TA1537; details: TA1537 − S9; 10 μg/plate
Experimental: as §1, §2, §3

[6] = system: Salmonella tester strain TA102; test: Ames test, strain TA102; details: TA102 − S9; 100 μg/plate
Experimental: as §1, §2, §3

[7] = 16 μM, starting titer approx. 7.1 logs, 1 minute irradiation = 1.2 J/cm^2 (Table 8)
[8] = 32 μM, starting titer approximately 5 logs (Table 10)
[9] = 64 μM, starting titer approximately 5 logs (Table 10)
[10] = 16 μM, starting titer approximately 5 logs (Table 10)

Cc1oc2c(C)c3oc(=O)cc(C)c3cc2c1CCN [Compound 3, 4′-(2-aminoethyl)-4,5′,8-trimethylpsoralen]
R17 Log Kill (R17 bacteriophage; 8 μM, starting titer approx. 7.1 logs, 1 minute irradiation = 1.2 J/cm^2 (Table 8)): 5.6 log | R17 Log Kill (R17 bacteriophage; 8 μM, starting titer approx. 7.2 logs, 1 minute irradiation (Table 7)): >6.2 log | R17 Log Kill (R17 bacteriophage; [7]): >6.1 log | R17 Log Kill (R17 bacteriophage; 16 μM, starting titer approx. 7.2 logs, 1 minute irradiation (Table 7)): >6.2 log | R17 Log Kill (R17 bacteriophage; 32 μM, starting titer approx. 7.2 logs, 1 minute irradiation (Table 7)): >6.2 log | R17 inactivation efficiency compared with AMT or 8-MOP (in words) (R17 bacteriophage): significantly higher inactivation efficiency than does AMT | HIV Log Kill (HIV-1; [8]): 2.7 log | HIV Log Kill (HIV-1; [9]): >3.8 log | HIV inactivation compared with AMT (in words) (HIV-1; cell-free HIV, 64 μM of compound or higher for compounds 2 and 3): significantly more active than AMT | mutagenic response in the Ames assay (in words) [1]: no mutagenicity | revertant colonies per plate ([2]; TA100 + S9, 5 μg/plate): −19 | revertant colonies per plate ([2]; TA100 + S9, 10 μg/plate): 8 | revertant colonies per plate ([2]; TA100 − S9, 5 μg/plate): 47 | revertant colonies per plate ([2]; TA100 − S9, 10 μg/plate): 47 | revertant colonies per plate ([3]; TA1538 + S9, 5 μg/plate): 1 | revertant colonies per plate ([3]; TA1538 + S9, 10 μg/plate): 9 | revertant colonies per plate ([3]; TA1538 − S9, 5 μg/plate): 0 | revertant colonies per plate ([3]; TA1538 − S9, 10 μg/plate): −6

Cc1oc2c(C)c3oc(=O)cc(C)c3cc2c1CNCCCN [Compound 5, 4′-(5-amino-2-aza)pentyl-4,5′,8-trimethylpsoralen]
R17 Log Kill (R17 bacteriophage; [7]): 5.6 log | R17 Log Kill (R17 bacteriophage; 32 μM, starting titer approx. 7.1 logs, 1 minute irradiation = 1.2 J/cm^2 (Table 8)): >6.1 log | R17 Log Kill (R17 bacteriophage; 64 μM, starting titer approx. 7.1 logs, 1 minute irradiation = 1.2 J/cm^2 (Table 8)): >6.1 log | R17 inactivation efficiency compared with AMT or 8-MOP (in words) (R17 bacteriophage): significantly higher inactivation efficiency than does AMT | HIV Log Kill (HIV-1; [10]): 0.9 log | HIV Log Kill (HIV-1; [8]): 1.3 log | HIV Log Kill (HIV-1; [9]): >2.6 log

Cc1oc2c(C)c3oc(=O)cc(C)c3cc2c1CNCCCOCCCCOCCN [Compound 9, 4′-(13-amino-2-aza-6,11-dioxa)tridecyl-4,5′,8-trimethylpsoralen]
HIV Log Kill (HIV-1; 16 μM, starting titer approximately 5.4 logs (Table 11)): 0.8 log | HIV Log Kill (HIV-1; 32 μM, starting titer approximately 5.4 logs (Table 11)): 1.4 log | HIV Log Kill (HIV-1; 64 μM, starting titer approximately 5.4 logs (Table 11)): 2.7 log

[N-]=[N+]=[N-] [Sodium Azide, sodium azide, reference compound]
revertant colonies per plate ([2]; TA100 − S9, 1.5 μg/plate): 965 | revertant colonies per plate ([3]; TA1538 − S9, 1.5 μg/plate): 965

Cc1cc(=O)oc2c(C)c3oc(CNCCN)c(C)c3cc12 [Compound 16, 5′-(4-amino-2-aza)butyl-4,4′,8-trimethylpsoralen]
R17 inactivation efficiency compared with AMT or 8-MOP (in words) (R17 bacteriophage): significantly higher inactivation efficiency than does AMT

O=P1(N(CCCl)CCCl)NCCCO1 (stereo not drawn) [CylcoPP, cyclophosphamide, reference compound]
PCE + MN (%) (mouse reticulocytes): 2.09 ± 0.17% | PCE/RBC (%) (mouse reticulocytes): 0.99 ± 0.33%

Nc1c2ccccc2nc2ccccc12 [9-Amino-acridine, reference compound]
revertant colonies per plate [4]: 284 | revertant colonies per plate [5]: 284

Cc1oc2c(C)c3oc(=O)cc(C)c3cc2c1COCCOCCN [Compound 7, 4′-(7-amino-2,5-oxa)heptyl-4,5′,8-trimethylpsoralen]
R17 Log Kill (R17 bacteriophage; 16 μM, starting titer approx. 7.1 logs, 1 minute irradiation (Table 9)): >6 log | R17 Log Kill (R17 bacteriophage; 32 μM, starting titer approx. 7.1 logs, 1 minute irradiation (Table 9)): >6 log | R17 Log Kill (R17 bacteriophage; 64 μM, starting titer approx. 7.1 logs, 1 minute irradiation (Table 9)): >6 log | HIV Log Kill (HIV-1; [10]): 0.8 log | HIV Log Kill (HIV-1; [8]): 2.1 log | HIV Log Kill (HIV-1; [9]): 3.5 log

Cc1oc2c(C)c3oc(=O)cc(C)c3cc2c1COCCOCCNCCCCN [Compound 8, 4′-(12-amino-8-aza-2,5-dioxa)dodecyl-4,5′,8-trimethylpsoralen]
HIV Log Kill (HIV-1; [10]): 1.1 log | HIV Log Kill (HIV-1; [8]): 1.9 log | HIV Log Kill (HIV-1; [9]): 3.7 log

OO [hydrogen peroxide]
revertant colonies per plate [6]: 660
